Measured values: patent publication US20260001853A1, “ASCORBIC ACID DERIVATIVE OR SALT THEREOF, AND COSMETIC THEREOF” (SEIWA KASEI COMPANY, LIMITED, priority 2022, published 2026)

Columns and labels:
[1] = tested on: Normal human dermal fibroblasts; assay: Collagen production promoting effect (ELISA of supernatant); format: cell-based; conditions: amount of collagen produced, % with control group taken as 100%; sample at 10 mmol/L or less, 48 hours, N=3
Protocol: Normal human dermal fibroblasts were prepared in D-MEM containing 5% (v/v) fetal bovine serum to a cell density of […] cells/well, and pre incubated on a 96-well plate for 24 hours. After removing the medium, samples prepared to a predetermined concentration in D-MEM containing 5% (v/v) fetal bovine serum were added to each well and cultured for 48 hours. After completion of the culture, the amount of free collagen in the supernatant was quantified by ELISA method. The measurement was performed with N=3.
(§1) The amount of collagen produced when the samples were measured at a concentration of 10 mmol/L or less was compared with that of the control group, and the results (% values when the control group is taken as 100%) are shown in Tables 15 to 17 based on the following criteria. • <100%: ± • 100-120%: + • 120%: ++

[2] = tested on: B16 melanoma 4A5 cells; assay: Melanin production inhibitory effect (theophylline-induced melanin production); format: cell-based, mouse; conditions: melanin production inhibition rate, sample at a concentration of 10 mM or less, 3 days culture, theophylline 1 mmol/L, N=4
Protocol: As a test of the whitening effect, the effect on theophylline-induced melanin production in B16 melanoma 4A5 cells was evaluated for the ascorbic acid derivatives of the present invention according to the following procedure. A similar evaluation was also performed for a known ascorbic acid derivative for comparison. The results are shown in Tables 9 to 11. • (1) B16 mouse melanoma 4A5 cells were seeded in a 48-well plate at a cell density of 8.0×10^3 cells/well. • (2) After culturing for 24 hours in Dulbecco's modified Eagle's medium (manufactured by SIGMA, hereinafter abbreviated as “D-MEM”) containing 10% fetal bovine serum, the medium was replaced with D-MEM containing 10% fetal bovine serum containing theophylline (final concentration 1 mmol/L) and a specified concentration of a sample. • (3) After culturing for 3 days in the presence of the sample, the medium was removed using an aspirator, distilled water was added, and the cells were disrupted by ultrasonication. • (4) The amount of protein was then quantified using a BCA protein assay kit (manufactured by PIERCE), and the amount of melanin produced was measured by an alkali solubilization method. Sodium hydroxide was added to the cell lysate to a final concentration of 1 mol/L, and the solution was dissolved by heating (60° C., 30 minutes), thereafter the absorbance at 405 nm was measured using a microplate reader. The amount of melanin was calculated from a calibration curve prepared using synthetic melanin (SIGMA) as a standard. The amount of melanin per unit protein was calculated by dividing the amount of melanin by the amount of protein. • (5) The melanin production inhibition rate was calculated using the following formula.
[In the formula, A represents the amount of melanin per unit protein (g/g) when the sample was added, B represents the amount of melanin per unit protein (g/g) in the normal group, and C represents the amount of melanin per unit protein (g/g) in the control group.]
The melanin production inhibition rate when the sample was measured at a concentration of 10 mM or less is expressed as follows. The measurement was performed with N=4. • <20%: ± • 20-40%: + • 40-60%: ++ • 60-100%: +++

[3] = tested on: Normal human dermal fibroblasts (NHDF); assay: Hyaluronic acid production promoting effect (ELISA of supernatant); format: cell-based; conditions: amount of hyaluronic acid produced, % with control group taken as 100%; sample at 10 mmol/L or less, 48 hours, N=3
Protocol: Normal human dermal fibroblasts (NHDF) were prepared in D-MEM containing 5% (v/v) fetal bovine serum to a cell density of 2.5× 10^4 cells/well, and then pre-incubated on a 96-well plate for 24 hours. After removing the medium, samples prepared in serum-free D-MEM were added to each well and cultured for 48 hours. After the culture was completed, the amount of hyaluronic acid in the supernatant was quantified by ELISA method. The measurement was performed with N=3.
as §1, with “of hyaluronic acid” for “of collagen”, “Tables 18” for “Tables 15”, “to 20” for “to 17”, “• 120-150%:” for “• 120%:”, “++ • 150%: +++” for “++”

[4] = Stability test (residual rate by HPLC, odor, coloring); format: physicochemical; conditions: 1% aqueous solution; for Coloring / Odor: total score of 10 panelists
Protocol: With a dilute potassium hydroxide aqueous solution, 1% aqueous solution of each test sample was adjusted to pH 6, placed in a 50 mL screw tube, sealed, […], and then subjected to HPLC measurement (using a liquid chromatograph manufactured by Shimadzu Corporation) to determine the residual rate from the peak area. The residual rate, odor, and coloring degree were evaluated according to the following methods and criteria.
Residual rate: • ⊚: 90% or more • ◯: 80% or more, less than 90% • Δ: 60% or more, less than 80% • x: 20% or more, less than 60% • xx: Less than 20%
Evaluation was made by 10 panelists according to the following criteria. • 3: Almost odorless • 2: There is a slight strange odor. • 1: A strong odor is detected.
Based on the evaluation results, the following classification was made: • ⊚: Total score of 10 panelists is 25 or more • ◯: Total score of 10 panelists is 20-24 • Δ: Total score of 10 panelists is 16-19 • x: The total score of 10 panelists is 15 or less
Evaluation was made by 10 panelists according to the following criteria. • 3: Almost no change compared to immediately after preparation. • 2: Color changes compared to immediately after preparation. • 1: Strongly colored compared to immediately after preparation.
Based on the evaluation results, the following classification was made: • ◯: Total score of 10 panelists is 25 or more • Δ: Total score of 10 panelists is 16-24 • x: The total score of 10 panelists is 15 or less

[5] = pH 6, stored at 50° C., two weeks later

| SMILES | Collagen production promoting effect [1] | Melanin production inhibition effect [2] | Hyaluronic acid production promoting effect [3] | also measured |
| --- | --- | --- | --- | --- |
| CCCCOC1=C(OCC(C)(C)O)[C@@H]([C@@H](O)CO)OC1=O [Synthesis Example 19, 2-O-butyl-3-O-(2-hydroxyisobutyl) ascorbic acid] | ++ (120%: ++) | + (20-40%: +) | – | – |
| CC(C)(O)COC1=C(OCC(O)CO)C(=O)O[C@@H]1[C@@H](O)CO (stereo partly shown) [Synthesis Example 28, 2-O-glyceryl-3-O-(2-hydroxyisobutyl) ascorbic acid] | – | + (20-40%: +) | ++ (120-150%: ++) | – |
| CC(C)(O)COC1=C(OCc2ccccc2)C(=O)O[C@@H]1[C@@H](O)CO [Synthesis Example 27, 2-O-benzyl-3-O-(2-hydroxyisobutyl) ascorbic acid] | ++ (120%: ++) | ++ (40-60%: ++) | +++ (150%: +++) | – |
| CCCCOCC(O)COC1=C(OCC(C)(C)O)C(C(O)CO)OC1=O (stereo not shown) [Synthesis Example 29, 2-O-(2-hydroxy-3-O-butyl)-3-O-(2-hydroxyisobutyl) ascorbic acid] | ++ (120%: ++) | – | – | – |
| C=CCOC1=C(OCC(C)(C)O)[C@@H]([C@@H](O)CO)OC1=O [Synthesis Example 26, 2-O-allyl-3-O-(2-hydroxyisobutyl) ascorbic acid] | ++ (120%: ++) | + (20-40%: +) | ++ (120-150%: ++) | – |
| O=C1O[C@H]([C@@H](O)CO)C(O)=C1O [Ascorbic acid] | – | – | – | Residual rate ([4]; pH 6, 50° C., initial): ⊚ (⊚: 90% or more); Coloring ([4]; pH 6, 50° C., initial): ◯ (◯: Total score of 10 panelists is 25 or more); Odor ([4]; pH 6, 50° C., initial): ◯ (◯: Total score of 10 panelists is 20-24); Residual rate [4, 5]: Δ (Δ: 60% or more, less than 80%); Coloring [4, 5]: Δ (Δ: Total score of 10 panelists is 16-24); Odor [4, 5]: Δ (Δ: Total score of 10 panelists is 16-19) |
| CCCCCCCCCCCCCCCCOC1=C(OCC(C)(C)O)C(=O)O[C@@H]1[C@@H](O)CO [Synthesis Example 10, 2-O-(2-hydroxyisobutyl)-3-O-hexadecylascorbic acid] | – | + (20-40%: +) | – | – |
| CC(C)(O)COC1=C(OCc2ccccc2)[C@@H]([C@@H](O)CO)OC1=O [Synthesis Example 12, 2-O-(2-hydroxyisobutyl)-3-O-benzyl ascorbic acid] | ++ (120%: ++) | +++ (60-100%: +++) | +++ (150%: +++) | – |
| CCCCCCCCCCCCCCCCOC1=C(OCC(C)(C)O)[C@@H]([C@@H](O)CO)OC1=O [Synthesis Example 25, 2-O-hexadecyl-3-O-(2-hydroxyisobutyl) ascorbic acid] | ++ (120%: ++) | + (20-40%: +) | ++ (120-150%: ++) | – |
| CCCCCCCCCCCCCCOC1=C(OCC(C)(C)O)C(=O)O[C@@H]1[C@@H](O)CO [Synthesis Example 9, 2-O-(2-hydroxyisobutyl)-3-O-tetradecyl ascorbic acid] | ++ (120%: ++) | ++ (40-60%: ++) | +++ (150%: +++) | – |
| CCC(O)COC1=C(OCC(C)(C)O)C(=O)O[C@@H]1[C@@H](O)CO (stereo partly shown) [Synthesis Example 35, 2-O-(2-hydroxyisobutyl)-3-O-(2-hydroxybutyl) ascorbic acid] | ++ (120%: ++) | ++ (40-60%: ++) | ++ (120-150%: ++) | – |
| CCCCCCCCOC1=C(OCC(C)(C)O)C(=O)O[C@@H]1[C@@H](O)CO [Synthesis Example 6, 2-O-(2-hydroxyisobutyl)-3-O-octyl ascorbic acid] | ++ (120%: ++) | +++ (60-100%: +++) | – | – |
| CCCCCCOC1=C(OCC(C)(C)O)C(=O)O[C@@H]1[C@@H](O)CO [Synthesis Example 5, 2-O-(2-hydroxyisobutyl)-3-O-hexyl ascorbic acid] | ++ (120%: ++) | + (20-40%: +) | – | – |
| CCCCC(CC)COCC(O)COC1=C(OCC(C)(C)O)C(=O)OC1C(O)CO (stereo not shown) [Synthesis Example 15, 2-O-(2-hydroxyisobutyl)-3-O-(2-hydroxy-3-O-ethylhexyl) ascorbic acid] | ++ (120%: ++) | + (20-40%: +) | – | – |
| CCCCCCCCCCCCOCC(O)COC1=C(OCC(C)(C)O)C(=O)OC1C(O)CO (stereo not shown) [Synthesis Example 16, 2-O-(2-hydroxyisobutyl)-3-O-(2-hydroxy-3-O-dodecyl) ascorbic acid] | – | + (20-40%: +) | ++ (120-150%: ++) | – |
| CCCCCCOC1=C(OCC(C)(C)O)[C@@H]([C@@H](O)CO)OC1=O [Synthesis Example 20, 2-O-hexyl-3-O-(2-hydroxyisobutyl) ascorbic acid] | ++ (120%: ++) | ++ (40-60%: ++) | – | – |
| CCCCOC1=C(OCC(C)(C)O)C(=O)O[C@@H]1[C@@H](O)CO [Synthesis Example 4, 2-O-(2-hydroxyisobutyl)-3-O-butylascorbic acid] | ++ (120%: ++) | – | – | – |
| CCCCCCCCCCOC1=C(OCC(C)(C)O)C(=O)O[C@@H]1[C@@H](O)CO [Synthesis Example 7, 2-O-(2-hydroxyisobutyl)-3-O-decyl ascorbic acid] | ++ (120%: ++) | +++ (60-100%: +++) | – | – |
| CCCCC(CC)COCC(O)COC1=C(OCC(C)(C)O)C(C(O)CO)OC1=O (stereo not shown) [Synthesis Example 30, 2-O-(2-hydroxy-3-O-ethylhexyl)-3-O-(2-hydroxyisobutyl) ascorbic acid] | – | + (20-40%: +) | +++ (150%: +++) | – |
| CCCCCCCCCCOC1=C(OCC(C)(C)O)[C@@H]([C@@H](O)CO)OC1=O [Synthesis Example 22, 2-O-decyl-3-O-(2-hydroxyisobutyl) ascorbic acid] | – | ++ (40-60%: ++) | – | – |
